In US9481676B2, “Azepino[4,5-B]indoles and methods of use” (Medivation Technologies, Inc., priority 2008, dated 2016) one finds inhibition data, which are given here for 17 compounds.

As a reminder, the inhibition is the drop in the measured response relative to a control, in per cent.

For experiment [1], the target named is T1, human recombinant adrenergic α2B receptor (Homo sapiens, UniProt P18089).
T1 construct: expressed in transfected cells; host or cells: CHO-K1 cells
T1 sequence (P18089 1-450): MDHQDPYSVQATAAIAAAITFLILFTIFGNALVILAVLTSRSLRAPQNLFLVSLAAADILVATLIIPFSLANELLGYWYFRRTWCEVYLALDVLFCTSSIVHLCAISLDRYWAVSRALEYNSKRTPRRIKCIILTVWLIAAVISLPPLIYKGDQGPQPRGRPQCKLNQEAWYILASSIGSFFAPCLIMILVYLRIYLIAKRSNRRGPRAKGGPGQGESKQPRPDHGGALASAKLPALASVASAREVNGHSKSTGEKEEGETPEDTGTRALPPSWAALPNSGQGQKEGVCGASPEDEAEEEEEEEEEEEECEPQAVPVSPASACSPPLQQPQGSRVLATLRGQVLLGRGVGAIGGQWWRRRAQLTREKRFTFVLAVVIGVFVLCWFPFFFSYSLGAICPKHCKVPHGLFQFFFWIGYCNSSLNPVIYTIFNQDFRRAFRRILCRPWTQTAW
The experiment is described as follows: Adrenergic alpha2B radioligand binding ([3H]Rauwolscine). The note with it: compound at 1 μM; read-out: Adrenergic (1 μM) α2B, percent inhibition of specific binding. The procedure:
To evaluate in radioligand binding assays the activity of compounds of the invention, human recombinant adrenergic α2B receptor expressed in Chinese hamster ovary (CHO-K1) cells (Uhlen S et al. Eur J. Pharmacol. 343(1):93, 1998) in a modified Tris-HCl buffer (50 mM Tris-HCl, pH 7.4, 12.5 mM MgCl2, 1 mM EDTA, 0.2% BSA) was used. Compounds of the invention were incubated with 2.5 nM [^3H]Rauwolscine for 60 min. at 25° C. Non-specific binding was estimated in the presence of 10 μM Prozosin. Receptor proteins were filtered and washed, the filters were then counted to determine [^3H]Rauwolscine specifically bound. Compounds were screened at 1 μM or lower, using 1% DMSO as vehicle. Biochemical assay results are presented as the percent inhibition of specific binding in Table 5.

In experiment [2] the target is T2, human recombinant adrenergic α1D receptor (Homo sapiens, UniProt P25100).
T2 construct: expressed in transfected cells; host or cells: HEK-293 cells
T2 sequence (P25100 1-572): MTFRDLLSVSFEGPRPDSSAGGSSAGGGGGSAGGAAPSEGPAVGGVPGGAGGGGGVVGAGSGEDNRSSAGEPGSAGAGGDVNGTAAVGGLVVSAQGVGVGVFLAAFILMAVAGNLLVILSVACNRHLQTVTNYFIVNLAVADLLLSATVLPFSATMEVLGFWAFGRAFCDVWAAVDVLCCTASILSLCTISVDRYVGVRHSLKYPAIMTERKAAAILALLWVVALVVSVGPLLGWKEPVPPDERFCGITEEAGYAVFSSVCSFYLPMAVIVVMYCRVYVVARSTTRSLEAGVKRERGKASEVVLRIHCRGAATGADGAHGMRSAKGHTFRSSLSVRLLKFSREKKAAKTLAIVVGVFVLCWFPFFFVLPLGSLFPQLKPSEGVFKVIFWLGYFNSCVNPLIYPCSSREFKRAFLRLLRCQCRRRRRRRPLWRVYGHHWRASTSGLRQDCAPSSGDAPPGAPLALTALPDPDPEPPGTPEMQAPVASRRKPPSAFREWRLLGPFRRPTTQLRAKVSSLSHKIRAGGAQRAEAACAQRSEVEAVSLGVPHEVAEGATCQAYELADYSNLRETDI
The experiment can be described thus: Adrenergic alpha1D radioligand binding ([3H]Prozosin). As to conditions: compound at 1 μM; read-out: Adrenergic (1 μM) α1D, percent inhibition of specific binding. The procedure: To evaluate in radioligand binding assays the activity of compounds of the invention, human recombinant adrenergic α1D receptor expressed in human embryonic kidney (HEK-293) cells (Kenny, B. A. et al. Br. J. Pharmacol. 115(6):981, 1995) in a 50 mM Tris-HCl buffer, pH 7.4, was used. Compounds of invention were incubated with 0.6 nM [^3H]Prozosin for 60 min. at 25° C. Non-specific binding was estimated in the presence of 10 μM phentolamine. Receptor proteins were filtered and washed, the filters were then counted to determine [^3H]Prozosin specifically bound. Compounds were screened at 1 μM or lower, using 1% DMSO as vehicle. Biochemical assay results are presented as the percent inhibition of specific binding in Table 5.

The target of experiment [3] is T3, human recombinant serotonin (5-Hydroxytryptamine) 5-HT2C receptor (Homo sapiens, UniProt P28335).
T3 construct: expressed in transfected cells; host or cells: CHO-K1 cells
T3 sequence (P28335 33-458): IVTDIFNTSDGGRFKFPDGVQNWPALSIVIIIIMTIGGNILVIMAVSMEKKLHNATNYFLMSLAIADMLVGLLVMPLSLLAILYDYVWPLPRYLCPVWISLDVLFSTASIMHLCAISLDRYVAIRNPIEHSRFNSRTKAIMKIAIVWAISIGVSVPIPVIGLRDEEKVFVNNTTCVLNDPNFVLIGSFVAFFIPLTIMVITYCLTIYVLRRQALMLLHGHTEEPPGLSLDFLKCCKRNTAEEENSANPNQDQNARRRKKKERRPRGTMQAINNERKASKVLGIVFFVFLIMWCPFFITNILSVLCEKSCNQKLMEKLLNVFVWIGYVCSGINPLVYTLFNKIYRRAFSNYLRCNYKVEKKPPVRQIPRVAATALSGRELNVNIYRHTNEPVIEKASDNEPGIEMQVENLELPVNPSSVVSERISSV
The experiment can be described thus: Serotonin 5-HT2C radioligand binding ([3H]Mesulergine). The note with it: compound at 1 μM; read-out: Serotonin (1 μM) 5-HT2C, percent inhibition of specific binding. The gist of the method: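 Membranes from CHO-K1 cells expressing human 5-HT2C, incubated with 1 nM [3H]mesulergine for 60 min at 25 °C in 50 mM Tris-HCl pH 7.4 with ascorbic acid and pargyline.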

Structures are written as SMILES.

Take `CN1CCc2c(n(CC(=O)Nc3ccccc3)c3ccc(Cl)cc23)CC1` [Compound No. 73, 2-(9-chloro-2,3,4,5-tetrahydro-3-methylazepino[4,5-b]indol-6(1H)-yl)-N-phenylacetamide]: the inhibition at 1 µM was determined as 21% in experiment [1], 1% in experiment [2] and 11% in experiment [3].
For `Cc1ccc2c(c1)c1c(n2CC(O)c2ccccc2)CCN(C)CC1` (stereo not drawn) [Compound No. 25, 2-(2,3,4,5-tetrahydro-3,9-dimethylazepino[4,5-b]indol-6(1H)-yl)-1-phenylethanol] the same measures were 104%, 96% and 94%.
With `Cc1ccc2c(c1)c1c(n2CCc2ccc(C(=O)O)nc2)CCN(C)CC1` [Compound No. 11, 5-(2-(2,3,4,5-tetrahydro-3,9-dimethylazepino[4,5-b]indol-6(1H)-yl)ethyl)pyridine-2-carboxylic acid], the inhibition at 1 µM is 3% in experiment [1], 7% in experiment [2] and 34% in experiment [3].
For `CN1CCc2c(n(CC(O)c3ccccc3F)c3ccc(Cl)cc23)CC1` (stereo not drawn) [Compound No. 40, 2-(9-chloro-2,3,4,5-tetrahydro-3-methylazepino[4,5-b]indol-6(1H)-yl)-1-(2-fluorophenyl)ethanol] the same measures were 101%, 64% and 97%.
On the same counts, the results for `Cc1ccc2c(c1)c1c(n2CCc2ccncc2)CCN(C)CC1` [Compound No. 6, 1,2,3,4,5,6-hexahydro-3,9-dimethyl-6-(2-(pyridin-4-yl)ethyl)azepino[4,5-b]indole] are 106%, 92% and 92%.
As to `Cc1ccc2c(c1)c1c(n2CC(=O)N(C)C2CCCCC2)CCN(C)CC1` [Compound No. 232, N-cyclohexyl-2-(3,9-dimethyl-2,3,4,5-tetrahydroazepino[4,5-b]indol-6(1H)-yl)-N-methylacetamide], the inhibition at 1 µM stood at 39% in experiment [1], 29% in experiment [2] and 93% in experiment [3].
For `Cc1ccc2c(c1)c1c(n2CC(O)c2ccc(F)cc2F)CCN(C)CC1` (stereo not drawn) [Compound No. 59, 1-(2,4-difluorophenyl)-2-(2,3,4,5-tetrahydro-3,9-dimethylazepino[4,5-b]indol-6(1H)-yl)ethanol], the inhibition at 1 µM in experiment [1] was 9%; in experiment [2], 73%; in experiment [3], -3%.
For the compound `Cc1ccc(C(O)Cn2c3c(c4cc(C)ccc42)CCN(C)CC3)cc1` (stereo not drawn) [Compound No. 27, 2-(2,3,4,5-tetrahydro-3,9-dimethylazepino[4,5-b]indol-6(1H)-yl)-1-p-tolylethanol], the inhibition at 1 µM was 100% in experiment [1], 95% in experiment [2] and 91% in experiment [3].
On to `Cc1ccc2c(c1)c1c(n2CC(C)(O)c2ccc(F)cc2)CCN(C)CC1` (stereo not drawn) [Compound No. 14, 2-(4-fluorophenyl)-1-(2,3,4,5-tetrahydro-3,9-dimethylazepino[4,5-b]indol-6(1H)-yl)propan-2-ol], for which the inhibition at 1 µM stood at 100% in experiment [1], 75% in experiment [2] and 95% in experiment [3].
On the same counts, the results for `Cc1ccc2c(c1)c1c(n2CC(=O)Nc2ccc(F)cc2)CCN(C)CC1` [Compound No. 44, N-(4-fluorophenyl)-2-(2,3,4,5-tetrahydro-3,9-dimethylazepino[4,5-b]indol-6(1H)-yl)acetamide] are 12%, 10% and 41%.
In the case of `Cc1ccc2c(c1)c1c(n2CC(=O)NC(C)C)CCN(C)CC1` [Compound No. 54, 2-(2,3,4,5-tetrahydro-3,9-dimethylazepino[4,5-b]indol-6(1H)-yl)-N-isopropylacetamide], the results for the inhibition at 1 µM in experiment [1], in experiment [2] and in experiment [3] were 1%, -1% and -2%, respectively.
As for `Cc1ccc2c(c1)c1c(n2CC(=O)OC2CCCC2)CCN(C)CC1` [Compound No. 55, Cyclopentyl-2-(2,3,4,5-tetrahydro-3,9-dimethylazepino[4,5-b]indol-6(1H)-yl)acetate], the figures for the inhibition at 1 µM in experiment [1], in experiment [2] and in experiment [3] were 7%, 8% and 32%, respectively.
In the case of `Cc1ccc2c(c1)c1c(n2CC(O)c2ccc(C)nc2)CCN(C)CC1` (stereo not drawn) [Compound No. 23, 2-(2,3,4,5-tetrahydro-3,9-dimethylazepino[4,5-b]indol-6(1H)-yl)-1-(6-methylpyridin-3-yl)ethanol], the results for the inhibition at 1 µM in experiment [1], in experiment [2] and in experiment [3] were 25%, 17% and 37%, respectively.
As for `CN1CCc2c(n(CCc3ccccc3F)c3ccc(Cl)cc23)CC1` [Compound No. 61, 6-(2-fluorophenethyl)-9-chloro-1,2,3,4,5,6-hexahydro-3-methylazepino[4,5-b]indole], the inhibition at 1 µM in experiment [1] was 103%; in experiment [2], -5%; in experiment [3], 89%.
For `C/C(=C\n1c2c(c3cc(Cl)ccc31)CCN(C)CC2)c1ccc(Cl)cc1` [Compound No. 36, 9-chloro-6-((E)-2-(4-chlorophenyl)prop-1-enyl)-1,2,3,4,5,6-hexahydro-3-methylazepino[4,5-b]indole], the inhibition at 1 µM came to 101% in experiment [1], 95% in experiment [2] and 83% in experiment [3].
With `CN1CCc2c(n(CC(O)c3cccnc3)c3ccc(Cl)cc23)CC1` (stereo not drawn) [Compound No. 18, 2-(9-chloro-2,3,4,5-tetrahydro-3-methylazepino[4,5-b]indol-6(1H)-yl)-1-(pyridin-3-yl)ethanol], the inhibition at 1 µM in experiment [1] came out at 98%; in experiment [2] it was 58%; in experiment [3] it was 64%.
Regarding `Cc1ccc2c(c1)c1c(n2CC(O)c2ccc(Cl)cc2)CCN(C)CC1` (stereo not drawn) [Compound No. 17, 1-(4-chlorophenyl)-2-(2,3,4,5-tetrahydro-3,9-dimethylazepino[4,5-b]indol-6(1H)-yl)ethanol], the inhibition at 1 µM was found to be 99% in experiment [1], 95% in experiment [2] and 93% in experiment [3].
